Test results reported in patent US10405547B2, “Substituted cyclic amides as herbicides” (FMC Corporation, priority 2015, dated 2019).

Experiments:
Type in all cases: in vivo
[1] = system: barnyardgrass (Echinochloa crus-galli); assay: Test A postemergence, barnyardgrass; settings: visual injury, 0 to 100 scale (0 no effect, 100 complete control), approximately 10 days
In short: (§1)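 Visual injury on a 0 to 100 scale, about 10 days post-spray in the greenhouse. Postemergence plants measured 2–10 cm at one to two leaves; preemergence pots received a directed soil spray. Soil was a loam–sand blend.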

[2] = system: ragweed (common ragweed, Ambrosia elatior); assay: Test A preemergence, ragweed; settings: 0 to 100 scale (0 no effect, 100 complete control)
In short: as §1

[3] = system: sedge, umbrella (small-flower umbrella sedge, Cyperus difformis); assay: Test B flooded paddy test, umbrella sedge; settings: 250 g ai/ha, applied to paddy water, visual rating after 13 to 15 days, scale 0 (no effect) to 100 (complete control)
From the text: (§2) At time of treatment, test pots were flooded to 3 cm above the soil surface, treated by application of test compounds directly to the paddy water, and then maintained at that water depth for the duration of the test. Treated plants and controls were maintained in a greenhouse for 13 to 15 days, after which time all species were compared to controls and visually evaluated. […] A dash (-) response means no test result.

[4] = system: pigweed (Amaranthus retroflexus); assay: Test A preemergence, pigweed; settings: 0 to 100 scale (0 no effect, 100 complete control)
In short: as §1

[5] = system: ryegrass, Italian (Lolium multiflorum); assay: Test A preemergence, Italian ryegrass; settings: 0 to 100 scale (0 no effect, 100 complete control)
In short: as §1

[6] = system: blackgrass (Alopecurus myosuroides); assay: Test A postemergence, blackgrass; settings: visual injury, 0 to 100 scale (0 no effect, 100 complete control), approximately 10 days
In short: as §1

[7] = system: barnyardgrass (Echinochloa crus-galli); assay: Test A preemergence, barnyardgrass; settings: 0 to 100 scale (0 no effect, 100 complete control)
In short: as §1

[8] = system: galium (catchweed bedstraw, Galium aparine); assay: Test A postemergence, galium; settings: visual injury, 0 to 100 scale (0 no effect, 100 complete control), approximately 10 days
In short: as §1

kochia (Kochia scoparia) [9] = assay: Test A postemergence, kochia; settings: visual injury, 0 to 100 scale (0 no effect, 100 complete control), approximately 10 days
In short: as §1

kochia (Kochia scoparia) [10] = assay: Test A preemergence, kochia; settings: 0 to 100 scale (0 no effect, 100 complete control)
In short: as §1

[11] = system: barnyardgrass (Echinochloa crus-galli); assay: Test B flooded paddy test, barnyardgrass; settings: 250 g ai/ha, applied to paddy water, visual rating after 13 to 15 days, scale 0 (no effect) to 100 (complete control)
From the text: as §2

[12] = system: pigweed (Amaranthus retroflexus); assay: Test A postemergence, pigweed; settings: visual injury, 0 to 100 scale (0 no effect, 100 complete control), approximately 10 days
In short: as §1

[13] = system: foxtail, giant (Setaria faberii); assay: Test A postemergence, giant foxtail; settings: visual injury, 0 to 100 scale (0 no effect, 100 complete control), approximately 10 days
In short: as §1

rice (Oryza sativa) = assay: Test B flooded paddy test, rice; settings: 250 g ai/ha, applied to paddy water, visual rating after 13 to 15 days, scale 0 (no effect) to 100 (complete control)
From the text: as §2

[14] = system: foxtail, giant (Setaria faberii); assay: Test A preemergence, giant foxtail; settings: 0 to 100 scale (0 no effect, 100 complete control)
In short: as §1

[15] = system: ducksalad (Heteranthera limosa); assay: Test B flooded paddy test, ducksalad; settings: 250 g ai/ha, applied to paddy water, visual rating after 13 to 15 days, scale 0 (no effect) to 100 (complete control)
From the text: as §2

corn (Zea mays) = assay: Test A postemergence, corn; settings: visual injury, 0 to 100 scale (0 no effect, 100 complete control), approximately 10 days
In short: as §1

[16] = system: wheat (Triticum aestivum); assay: Test A postemergence, wheat; settings: visual injury, 0 to 100 scale (0 no effect, 100 complete control), approximately 10 days
In short: as §1

[17] = system: ragweed (common ragweed, Ambrosia elatior); assay: Test A postemergence, ragweed; settings: visual injury, 0 to 100 scale (0 no effect, 100 complete control), approximately 10 days
In short: as §1

[18] = system: ryegrass, Italian (Lolium multiflorum); assay: Test A postemergence, Italian ryegrass; settings: visual injury, 0 to 100 scale (0 no effect, 100 complete control), approximately 10 days
In short: as §1

| SMILES | Plant response rating, Barnyardgrass ([1]; 125 g ai/ha) | Plant response rating, Barnyardgrass ([1]; 500 g ai/ha) | Plant response rating, Ragweed ([2]; 125 g ai/ha) | Plant response rating, Ragweed ([2]; 500 g ai/ha) | Plant response rating, Sedge, Umbrella (Flood) [3] | Plant response rating, Pigweed ([4]; 125 g ai/ha) | Plant response rating, Pigweed ([4]; 500 g ai/ha) | Plant response rating, Ryegrass, Italian ([5]; 125 g ai/ha) | Plant response rating, Ryegrass, Italian ([5]; 500 g ai/ha) | Plant response rating, Blackgrass ([6]; 125 g ai/ha) | Plant response rating, Blackgrass ([6]; 500 g ai/ha) | Plant response rating, Barnyardgrass ([7]; 125 g ai/ha) | Plant response rating, Barnyardgrass ([7]; 500 g ai/ha) | Plant response rating, Galium ([8]; 125 g ai/ha) | Plant response rating, Galium ([8]; 500 g ai/ha) | Plant response rating, Kochia (kochia (Kochia scoparia) [9]; 125 g ai/ha) | Plant response rating, Kochia (kochia (Kochia scoparia) [9]; 500 g ai/ha) | Plant response rating, Kochia (kochia (Kochia scoparia) [10]; 125 g ai/ha) | Plant response rating, Kochia (kochia (Kochia scoparia) [10]; 500 g ai/ha) | Plant response rating, Barnyardgrass (Flood) [11] | further results |
| --- | --- | --- | --- | --- | --- | --- | --- | --- | --- | --- | --- | --- | --- | --- | --- | --- | --- | --- | --- | --- | --- |
| CN1CC(c2cccc(Oc3ncc(F)cn3)c2)C(C(=O)Nc2ccccc2F)C1=O (single isomer, unassigned) [Compound 36] | 90 | 90 | 0 | 50 | 0 | 0 | 40 | 0 | 90 | 20 | 50 | 90 | 90 | 40 | 70 | 0 | 50 | 0 | 40 | 60 | Plant response rating, Pigweed ([12]; 125 g ai/ha): 30; Plant response rating, Pigweed ([12]; 500 g ai/ha): 50; Plant response rating, Foxtail, Giant ([13]; 125 g ai/ha): 80; Plant response rating, Foxtail, Giant ([13]; 500 g ai/ha): 80; Plant response rating, Rice (Flood) (rice (Oryza sativa)): 30; Plant response rating, Foxtail, Giant ([14]; 125 g ai/ha): 90; Plant response rating, Foxtail, Giant ([14]; 500 g ai/ha): 90; Plant response rating, Ducksalad (Flood) [15]: 0; Plant response rating, Corn (corn (Zea mays); 125 g ai/ha): 40; Plant response rating, Corn (corn (Zea mays); 500 g ai/ha): 90; Plant response rating, Wheat ([16]; 125 g ai/ha): 0; Plant response rating, Wheat ([16]; 500 g ai/ha): 60; Plant response rating, Ragweed ([17]; 125 g ai/ha): 0; Plant response rating, Ragweed ([17]; 500 g ai/ha): 40; Plant response rating, Ryegrass, Italian ([18]; 125 g ai/ha): 0; Plant response rating, Ryegrass, Italian ([18]; 500 g ai/ha): 50 |
| O=C1NCC(c2cccc(Oc3ncc(F)cn3)c2)C1C(=O)Nc1cccc(F)c1F (single isomer, unassigned) [Compound 37] | 90 | 100 | 0 | 80 | 0 | 60 | 80 | 20 | 50 | 40 | 70 | 90 | 90 | 50 | 70 | 0 | 50 | 0 | 70 | 30 | Plant response rating, Pigweed ([12]; 125 g ai/ha): 40; Plant response rating, Pigweed ([12]; 500 g ai/ha): 70; Plant response rating, Foxtail, Giant ([13]; 125 g ai/ha): 70; Plant response rating, Foxtail, Giant ([13]; 500 g ai/ha): 90; Plant response rating, Rice (Flood) (rice (Oryza sativa)): 20; Plant response rating, Foxtail, Giant ([14]; 125 g ai/ha): 90; Plant response rating, Foxtail, Giant ([14]; 500 g ai/ha): 100; Plant response rating, Ducksalad (Flood) [15]: 100; Plant response rating, Corn (corn (Zea mays); 125 g ai/ha): 70; Plant response rating, Corn (corn (Zea mays); 500 g ai/ha): 90; Plant response rating, Wheat ([16]; 125 g ai/ha): 20; Plant response rating, Wheat ([16]; 500 g ai/ha): 70; Plant response rating, Ragweed ([17]; 125 g ai/ha): 20; Plant response rating, Ragweed ([17]; 500 g ai/ha): 70; Plant response rating, Ryegrass, Italian ([18]; 125 g ai/ha): 0; Plant response rating, Ryegrass, Italian ([18]; 500 g ai/ha): 60 |
